Laboratory results as given in patent publication US20210161131A1, “cis-p-Menthane-1,8-Di-secondary Amine Compounds as well as Their Preparation Methods and Application in Weed Control” (RESEARCH INSTITUTE OF FORESTRY NEW TECHNOLOGY, CHINESE …, priority 2019, published 2021).

Tested on: barnyard grass seeds
Experiment: Petri dish seed germination method: inhibition of root and stem growth of barnyard grass
Type: in vivo
Settings: 96 hours incubation
Protocol: (§1) Step 2: Accurately weigh 1 mmol cis-p-menthane-1,8-di-Schiff base compounds and cis-p-menthane-1,8-di-secondary amine compounds respectively, dissolve each of them with 0.25 mL DMF, and add a drop of Tween 80 in each resulted solution. After being fully dissolved, each solution is transferred to a 100 mL volumetric flask respectively and then diluted to the mark with distilled water to obtain a solution with a concentration of 10 mmol/L as the mother liquor. The two-fold dilution method is used to prepare diluted solutions with a series of concentrations (the concentrations of DMF and Tween 80 in the diluted solutions are the same as those in the mother liquor).
(§2) Barnyard grass seeds are placed in a 28° C. incubator and are soaked in an appropriate amount of distilled water for 12 hours there. After the clean water is filtered out, the seeds are then placed in the 28° C. incubator for 24 hours to germinate. Spread 2 pieces of filter paper in each of several Petri dishes, and place 10 barnyard grass seeds with the same size in each dish. Repeat each treatment for three times The dishes are divided into two groups: test dishes and control dishes. Add into each test dish 10 mL of the sample solution with the corresponding concentration of the target compound, and add into each control dish the same amount of the mixture of water, DMF and Tween 80 as the blank control. Add 10 seeds to each of the dishes (both test dishes and control dishes), place them in an artificial climate incubator, and incubate them for 96 hours under a temperature of 28° C., an illumination of 5000 1×, a photoperiod of day:night=16:8 and a relative humidity of 70-80%. The experimental data is processed and analyzed with DPS software to calculate the inhibition rate (y) of cis-p-menthane-1,8-di-secondary amine compounds on the root growth or stem growth of barnyard grass seeds.
Wherein, y is the inhibition rate of root growth or stem growth (%), x0 is the root length or stem length of the control, and x1 is the root length or stem length of the sample.
as §1, with “Accurately” for “Step 2: Accurately”, “cis-p-menthane-1,8-bis-(4-chlorophenyl)Schiff” for “cis-p-menthane-1,8-di-Schiff”, “base” for “base compounds”, “cis-p-menthane-1,8-bis-(4-chlorobenzyl)amine” for “cis-p-menthane-1,8-di-secondary amine compounds”, “(5 mmol/L, 2.5 mmol/L, 1.25 mmol/L, 0.625 mmol/L, 0.3125 mmol/L and 0.1563 mmol/L; the” for “(the”
as §2, with “placed in a 30° C. incubator” for “placed in the 28° C. incubator”, “in each Petri dish,” for “in each of several Petri dishes,”, “each Petri dish, and place” for “several Petri dishes, and place”, “with the above corresponding concentration” for “with the corresponding concentration”, “with DPS software.” for “with DPS software to calculate the inhibition rate (y) of cis-p-menthane-1,8-di-secondary amine compounds on the root growth or stem growth of barnyard grass seeds.”

CC1(NCc2ccc(F)cc2)CCC(C(C)(C)NCc2ccc(F)cc2)CC1 (stereo not drawn) [cis-p-menthane-1,8-bis-(4-fluorobenzyl)amine]
inhibition rate on the root growth of barnyard grass seeds (0.15625 mmol/L): 38.2% | inhibition rate on the stem growth of barnyard grass seeds (0.15625 mmol/L): 7.2% | inhibition rate on the root growth of barnyard grass seeds (0.3125 mmol/L): 48.3% | inhibition rate on the stem growth of barnyard grass seeds (0.3125 mmol/L): 10.5% | inhibition rate on the root growth of barnyard grass seeds (0.625 mmol/L): 78.6% | inhibition rate on the stem growth of barnyard grass seeds (0.625 mmol/L): 58.3% | inhibition rate on the root growth of barnyard grass seeds (1.25 mmol/L): 78.6% | inhibition rate on the stem growth of barnyard grass seeds (1.25 mmol/L): 75.1% | inhibition rate on the root growth of barnyard grass seeds (2.5 mmol/L): 98.6% | inhibition rate on the stem growth of barnyard grass seeds (2.5 mmol/L): 85.9% | inhibition rate on the root growth of barnyard grass seeds (5 mmol/L): 100.0% | inhibition rate on the stem growth of barnyard grass seeds (5 mmol/L): 100.0%

COc1ccc(C=NC2(C)CCC(C(C)(C)N=Cc3ccc(OC)cc3)CC2)cc1 (stereo not drawn) [cis-p-menthane-1,8-bis-(4-methoxybenzyl)Schiff base, reference compound]
inhibition rate on the root growth of barnyard grass seeds (0.3125 mmol/L): 70.7% | inhibition rate on the stem growth of barnyard grass seeds (0.3125 mmol/L): 15.4% | inhibition rate on the root growth of barnyard grass seeds (0.625 mmol/L): 66.7% | inhibition rate on the stem growth of barnyard grass seeds (0.625 mmol/L): 6.9% | inhibition rate on the root growth of barnyard grass seeds (1.25 mmol/L): 55.3% | inhibition rate on the stem growth of barnyard grass seeds (1.25 mmol/L): 4% | inhibition rate on the root growth of barnyard grass seeds (2.5 mmol/L): 28.1% | inhibition rate on the stem growth of barnyard grass seeds (2.5 mmol/L): 8.0% | inhibition rate on the root growth of barnyard grass seeds (5 mmol/L): 7.6% | inhibition rate on the stem growth of barnyard grass seeds (5 mmol/L): 2.1%

COc1ccc(CNC2(C)CCC(C(C)(C)NCc3ccc(OC)cc3)CC2)cc1 (stereo not drawn) [cis-p-menthane-1,8-bis-(4-methoxybenzyl)amine]
inhibition rate on the root growth of barnyard grass seeds (0.15625 mmol/L): 37.8% | inhibition rate on the stem growth of barnyard grass seeds (0.15625 mmol/L): 9.9% | inhibition rate on the root growth of barnyard grass seeds (0.3125 mmol/L): 42.2% | inhibition rate on the stem growth of barnyard grass seeds (0.3125 mmol/L): 27.9% | inhibition rate on the root growth of barnyard grass seeds (0.625 mmol/L): 88.7% | inhibition rate on the stem growth of barnyard grass seeds (0.625 mmol/L): 72.5% | inhibition rate on the root growth of barnyard grass seeds (1.25 mmol/L): 95.1% | inhibition rate on the stem growth of barnyard grass seeds (1.25 mmol/L): 70.6% | inhibition rate on the root growth of barnyard grass seeds (2.5 mmol/L): 96.5% | inhibition rate on the stem growth of barnyard grass seeds (2.5 mmol/L): 84.4% | inhibition rate on the root growth of barnyard grass seeds (5 mmol/L): 100.0% | inhibition rate on the stem growth of barnyard grass seeds (5 mmol/L): 84.3%

Cc1ccc(CNC(C)(C)[C@H]2CC[C@@](C)(NCc3ccc(C)cc3)CC2)cc1 [cis-p-menthane-1,8-bis-(4-methylbenzyl)amine]
inhibition rate on the root growth of barnyard grass seeds (0.15625 mmol/L): 42.5% | inhibition rate on the stem growth of barnyard grass seeds (0.15625 mmol/L): 42.1% | inhibition rate on the root growth of barnyard grass seeds (0.3125 mmol/L): 86.6% | inhibition rate on the stem growth of barnyard grass seeds (0.3125 mmol/L): 64.6% | inhibition rate on the root growth of barnyard grass seeds (0.625 mmol/L): 89.6% | inhibition rate on the stem growth of barnyard grass seeds (0.625 mmol/L): 65.9% | inhibition rate on the root growth of barnyard grass seeds (1.25 mmol/L): 91.9% | inhibition rate on the stem growth of barnyard grass seeds (1.25 mmol/L): 74.7% | inhibition rate on the root growth of barnyard grass seeds (2.5 mmol/L): 95.2% | inhibition rate on the stem growth of barnyard grass seeds (2.5 mmol/L): 87.1% | inhibition rate on the root growth of barnyard grass seeds (5 mmol/L): 100.0% | inhibition rate on the stem growth of barnyard grass seeds (5 mmol/L): 93.3%

CSc1ccc(CNC2(C)CCC(C(C)(C)NCc3ccc(SC)cc3)CC2)cc1 (stereo not drawn) [cis-p-menthane-1,8-bis-(4-methylthiobenzyl)amine]
inhibition rate on the root growth of barnyard grass seeds (0.15625 mmol/L): 32.0% | inhibition rate on the stem growth of barnyard grass seeds (0.15625 mmol/L): 22.8% | inhibition rate on the root growth of barnyard grass seeds (0.3125 mmol/L): 58.1% | inhibition rate on the stem growth of barnyard grass seeds (0.3125 mmol/L): 66.0% | inhibition rate on the root growth of barnyard grass seeds (0.625 mmol/L): 77.2% | inhibition rate on the stem growth of barnyard grass seeds (0.625 mmol/L): 66.2% | inhibition rate on the root growth of barnyard grass seeds (1.25 mmol/L): 90.8% | inhibition rate on the stem growth of barnyard grass seeds (1.25 mmol/L): 83.4% | inhibition rate on the root growth of barnyard grass seeds (2.5 mmol/L): 96.0% | inhibition rate on the stem growth of barnyard grass seeds (2.5 mmol/L): 77.5% | inhibition rate on the root growth of barnyard grass seeds (5 mmol/L): 98.5% | inhibition rate on the stem growth of barnyard grass seeds (5 mmol/L): 85.1%

CC1(N=Cc2ccc(C(F)(F)F)cc2)CCC(C(C)(C)N=Cc2ccc(C(F)(F)F)cc2)CC1 (stereo not drawn) [cis-p-menthane-1,8-bis-(4-trifluoromethylbenzyl)Schiff base, reference compound]
inhibition rate on the stem growth of barnyard grass seeds (0.3125 mmol/L): 20.6% | inhibition rate on the root growth of barnyard grass seeds (0.625 mmol/L): 0.8% | inhibition rate on the stem growth of barnyard grass seeds (0.625 mmol/L): 30.9% | inhibition rate on the root growth of barnyard grass seeds (1.25 mmol/L): 17.5% | inhibition rate on the stem growth of barnyard grass seeds (1.25 mmol/L): 14.6% | inhibition rate on the root growth of barnyard grass seeds (2.5 mmol/L): 7.1% | inhibition rate on the stem growth of barnyard grass seeds (2.5 mmol/L): 19.5% | inhibition rate on the root growth of barnyard grass seeds (5 mmol/L): 48.4% | inhibition rate on the stem growth of barnyard grass seeds (5 mmol/L): 31.1%

CC1(NCc2ccc(C(F)(F)F)cc2)CCC(C(C)(C)NCc2ccc(C(F)(F)F)cc2)CC1 (stereo not drawn) [cis-p-menthane-1,8-bis-(4-trifluoromethylbenzyl)amine]
inhibition rate on the root growth of barnyard grass seeds (0.15625 mmol/L): 1.0% | inhibition rate on the stem growth of barnyard grass seeds (0.15625 mmol/L): 11.6% | inhibition rate on the root growth of barnyard grass seeds (0.3125 mmol/L): 62.8% | inhibition rate on the stem growth of barnyard grass seeds (0.3125 mmol/L): 42.2% | inhibition rate on the root growth of barnyard grass seeds (0.625 mmol/L): 82.3% | inhibition rate on the stem growth of barnyard grass seeds (0.625 mmol/L): 55.1% | inhibition rate on the root growth of barnyard grass seeds (1.25 mmol/L): 86.1% | inhibition rate on the stem growth of barnyard grass seeds (1.25 mmol/L): 67.0% | inhibition rate on the root growth of barnyard grass seeds (2.5 mmol/L): 100.0% | inhibition rate on the stem growth of barnyard grass seeds (2.5 mmol/L): 83.4% | inhibition rate on the root growth of barnyard grass seeds (5 mmol/L): 100.0% | inhibition rate on the stem growth of barnyard grass seeds (5 mmol/L): 78.5%

CC1(NCc2ccc(Br)o2)CCC(C(C)(C)NCc2ccc(Br)o2)CC1 (stereo not drawn) [cis-p-menthane-1,8-bis-(5-bromofuran-2-methyl)amine]
inhibition rate on the root growth of barnyard grass seeds (0.15625 mmol/L): 42.2% | inhibition rate on the stem growth of barnyard grass seeds (0.15625 mmol/L): 10.1% | inhibition rate on the root growth of barnyard grass seeds (0.3125 mmol/L): 39.6% | inhibition rate on the stem growth of barnyard grass seeds (0.3125 mmol/L): 5.6% | inhibition rate on the root growth of barnyard grass seeds (0.625 mmol/L): 54.8% | inhibition rate on the stem growth of barnyard grass seeds (0.625 mmol/L): 11.6% | inhibition rate on the root growth of barnyard grass seeds (1.25 mmol/L): 61.5% | inhibition rate on the stem growth of barnyard grass seeds (1.25 mmol/L): 30.3% | inhibition rate on the root growth of barnyard grass seeds (2.5 mmol/L): 84.4% | inhibition rate on the stem growth of barnyard grass seeds (2.5 mmol/L): 50.5% | inhibition rate on the root growth of barnyard grass seeds (5 mmol/L): 90.7% | inhibition rate on the stem growth of barnyard grass seeds (5 mmol/L): 71.8%

Cc1ccc(CNC(C)(C)[C@H]2CC[C@@](C)(NCc3ccc(C)o3)CC2)o1 [cis-p-menthane-1,8-bis-(5-methylfuran-2-methyl)amine]
inhibition rate on the root growth of barnyard grass seeds (0.15625 mmol/L): 23.1% | inhibition rate on the stem growth of barnyard grass seeds (0.15625 mmol/L): 7.2% | inhibition rate on the root growth of barnyard grass seeds (0.3125 mmol/L): 41.3% | inhibition rate on the stem growth of barnyard grass seeds (0.3125 mmol/L): 12.5% | inhibition rate on the root growth of barnyard grass seeds (0.625 mmol/L): 24.7% | inhibition rate on the stem growth of barnyard grass seeds (0.625 mmol/L): 6.8% | inhibition rate on the root growth of barnyard grass seeds (1.25 mmol/L): 50.3% | inhibition rate on the stem growth of barnyard grass seeds (1.25 mmol/L): 17.1% | inhibition rate on the root growth of barnyard grass seeds (2.5 mmol/L): 64.4% | inhibition rate on the stem growth of barnyard grass seeds (2.5 mmol/L): 36.5% | inhibition rate on the root growth of barnyard grass seeds (5 mmol/L): 95.5% | inhibition rate on the stem growth of barnyard grass seeds (5 mmol/L): 79.8%
